Data as given in patent publication US11220548B2, “Treatment of C1013G/CXCR4-associated Waldenstrom's macroglobulinemia with an anti-CXCR4 antibody” (BRISTOL-MYERS SQUIBB COMPANY, priority 2013, dated 2022).

Experiments:
WM cell lines = experiment: Adhesion of WM cells to primary WM BM-MSCs; type: cell-based, human; details: 4 h treatment, adhesion after 2 h
Procedure: (§1) FIGS. 15A-15C: FIGS. 15A-15C show the effect of BMS-936564 on adhesion and proliferation of WM cells in vitro. WM cell lines were treated with BMS-936564 for 4 h and subsequently tested for adhesion to primary WM BM-MSCs. […] WM cell lines, MWCL.1 (FIG. 15B) and BCWN.1 (FIG. 15C) were cultured with control media and with BMS-936564 for 48 h in the presence or absence of primary WM BMMSCs. Cell proliferation was assessed using a [^3H]-thymidine uptake assay. Bars indicate standard deviations. P indicates P value. All data represent mean (±sd) of triplicate experiments. The CXCR4 antagonist, […] (Sigma-Aldrich, St. Louis, Mo.), was used as control.

[1] = system: WM cell lines (MWCL.1; BCWM.1); experiment: [3H]-thymidine uptake proliferation assay in presence of primary WM BM-MSCs; type: cell-based, human; details: 48 h
Procedure: as §1

BCWM.1 cells [2] = experiment: Western blot of survival signaling in WM cells; type: cell-based, human; details: 6 h, cultured in the context of BM-MSCs, increasing concentrations
Procedure: BCWM.1 cells were exposed to BMS-936564 for 6 h in presence or absence of primary WM BM-MSCs. The BCWM.1 cells were then harvested and cell lysates were subjected to western blot analysis using anti-phospho(p)-ERK1/2, anti-ERK1/2, anti-p-Akt, anti-Akt, anti-p-SRC, and anti-SRC antibodies. BCWM.1 cells cultured in the absence of WM BM-MSCs were used as control. Bars indicate standard deviation.
(§2) Protein lysates were obtained from WM cells by homogenization under nondenaturing conditions in lysis buffer (Cell Signaling Technology, Beverly, Mass.) supplemented with 5 mM NaF, 2 mM Na3VO4, 1 mM PMSF ([…]), 5 μg/mL leupeptine, and 5 μg/mL aprotinin. Whole-cell lysates were subjected to sodium dodecyl sulfate-polyacrylamide gel electrophoresis (SDS-PAGE) and transferred to polyvinylidene difluoride (PVDF) membrane (Bio-Rad Laboratories, Hercules, Calif.). The antibodies used for immunoblotting included: anti-phospho(p)-ERK, anti-ERK, anti-p-Akt, anti-Akt, anti-p-Src, anti-Src, anti-caspase-9, anti-PARP, anti-p-β-catenin, anti-β-catenin, anti-p-GSK3, anti-GAPDH and anti-α-tubulin antibodies (Cell Signaling, Danvers, Mass.).
To dissect the possible role of BMS-936564 in affecting WM signaling, WM cells were cultured in the absence or presence of primary WM BM-MSCs, with increasing concentrations of the anti-CXCR4 antibody.

BCWM.1 cells [3] = experiment: Western blot of apoptosis-related proteins in WM cells; type: cell-based, human; details: 14 h
Procedure: FIGS. 18A and 18B: FIGS. 18A and 18B show the effect of BMS-936564 on apoptosis-related proteins in WM cells. BCWM.1 cells were exposed to BMS-936564 for 14 h. Whole cell lysates were then harvested and subjected to western blot analysis using anti-caspase-9, anti-PARP and anti-tubulin antibodies (FIG. 18A), and anti-p-β catenin, anti-β-catenin, anti-p-GSK3β, and anti-tubulin antibodies (FIG. 18B).
as §2

[4] = system: C1013G/CXCR4 variant-harboring BCWM.1 cells; experiment: In vivo dissemination of C1013G/CXCR4-mutated WM cells (immunohistochemistry for human CD20 and CXCR4); design: species or system SCID/Bg mice; details: 10 mg/kg intraperitoneally, 3-4 times per week for 3 weeks
Procedure: FIGS. 20A-20E: FIGS. 20A-20E show representative histochemical images of the effect of BMS-936564 on C1013G/CXCR4-mutated cells in WM cells in vivo. SCID/Bg mice were injected intravenously with either C1013G/CXCR4 variant-harboring BCWM.1 cells or empty/control vector-infected cells (control cells). Mice were treated with either BMS-936564 or control antibody (10 mg/kg, intraperitoneally; ×3/4/week; mice: 5/group). After 3 weeks mice were euthanized and organs harvested. Hematoxylin-eosin immunohistochemical staining for human CD20 and CXCR4 were performed on femur BM (FIG. 20A), liver (FIG. 20B), kidney (FIG. 20C), lung (FIG. 20D), and lymph nodes (FIG. 20E) (Nikon, Melville, N.Y.; 4×, 10× or 20× magnifications are shown).
Murine tissues (BM, liver, kidney, lung and lymph nodes) were analyzed and quantified for the expression of human CD20 and human CXCR4. These tissues were fixed in formalin 10%, ethanol 70% was used as storage solution; and embedded in paraffin. Paraffin sections were incubated with anti-human-CXCR4 (Abcam, Cambridge, Mass.), and anti-human-CD20 (Dako, Carpinteria, Calif.) monoclonal antibodies, using the Leica Bond III automated staining platform (Leica Biosystems, Buffalo Grove, Ill.). […] Quantification of CD20 and CXCR4 staining was performed using NIS Elements software (Nikon, Melville, N.Y.). […]

## BMS-936564: fully human anti-CXCR4 monoclonal antibody; VH SEQ ID NO: 25, VL SEQ ID NO: 29
WM cell lines
  WM cell adhesion to WM BM-MSCs: inhibition
[1]
  WM cell proliferation in presence of WM BM-MSCs: inhibition
BCWM.1 cells [2]
  p-Akt, p-ERK, and p-Src in WM cells: drug-dependent inhibition
BCWM.1 cells [3]
  caspase-9 and PARP cleavage: increase
  p-GSK3-β, p-β-catenin and β-catenin: increased phospho(p)-GSK3-β, and p-β-catenin up-regulation, leading to β-catenin degradation
[4]
  involvement of lymph nodes: absent
[4]; vs control antibody-treated mice
  CXCR4+/CD20+ cell infiltration in femur, liver, kidney and lung: significant reduction
